These are literature values, as cited in patent publication US9173845B2, “Controlled release pharmaceutical compositions of milnacipran” (priority 2009, dated 2015).

For orientation: half-life means the time needed for the level to fall by half in the phase considered.

For this series the following is noted: immediate release Milnacipran, background.

Consider `CCN(CC)C(=O)C1(c2ccccc2)CC1CN` (stereo not drawn) [Milnacipran, cis-2-amino methyl-N,N-diethyl-1-phenyl cyclopropane carboxamide], for which the half-life is approximately 8 h.
